Source: US7049271B2, “Phenyl-substituted 2-enamino-ketonitriles” (Bayer Aktiengesellschaft, priority 2000, dated 2006)

Compound	melting point [°C]
CN/C(=C(/C#N)C(=O)c1ccc(Cl)cc1)c1ccc(Cl)cc1 [Example 3, 2-(4-chlorobenzoyl)-3-(4-chlorophenyl)-3-(N-methylamino)-propenonitrile]	182
C/C(NC1CC1)=C(\C#N)C(=S)c1ccc(Cl)cc1 [Example 8, 2-[(4-chlorophenyl)-thiocarbonyl]-3-(N-cyclopropylamino)-crotononitrile]	215
